Test [1] relates to T. cruzi (Tulahuen strain) intracellular amastigotes. The test is described as follows: intracellular amastigote growth inhibition in NIH-3T3 fibroblasts. The format is cell-based, Trypanosoma cruzi. The conditions noted are these: for changes in the percent activity: at 50 μM, highest concentration tested.
In test [2] the target is T1, T. cruzi glucokinase (TcGlcK) (Trypanosoma cruzi, UniProt Q4E4E1). It is filed as biochemical. The following applies: for LE (ligand efficiency): LE = −RTlnKi/N, N non-hydrogen atoms, TcGlcK inhibition; for TcGlcK selectivity ratio: Ki (HsHxKIV) / Ki (TcGlcK); for fold weaker TcGlcK inhibition compared to CBZ-GlcN: ratio of Ki values.
The test system of the next test is T. cruzi parasites. The conditions noted are these: acute stage; cited from earlier work.
Test [3] has as its system T. cruzi (Tulahuen strain) intracellular amastigotes. The following applies: read-out: T. cruzi IC50, reported value, cited from earlier work.
The subject of test [4] is T. cruzi hexokinase (TcHxK). The conditions noted are these: read-out: KM for D-glucose catalysis, TcHxK; cited from earlier work.
Test [5] deals with T2, Homo sapiens hexokinase IV (HsHxKIV) (Homo sapiens, UniProt P35557).
T2 sequence (P35557 12-457 limits assumed): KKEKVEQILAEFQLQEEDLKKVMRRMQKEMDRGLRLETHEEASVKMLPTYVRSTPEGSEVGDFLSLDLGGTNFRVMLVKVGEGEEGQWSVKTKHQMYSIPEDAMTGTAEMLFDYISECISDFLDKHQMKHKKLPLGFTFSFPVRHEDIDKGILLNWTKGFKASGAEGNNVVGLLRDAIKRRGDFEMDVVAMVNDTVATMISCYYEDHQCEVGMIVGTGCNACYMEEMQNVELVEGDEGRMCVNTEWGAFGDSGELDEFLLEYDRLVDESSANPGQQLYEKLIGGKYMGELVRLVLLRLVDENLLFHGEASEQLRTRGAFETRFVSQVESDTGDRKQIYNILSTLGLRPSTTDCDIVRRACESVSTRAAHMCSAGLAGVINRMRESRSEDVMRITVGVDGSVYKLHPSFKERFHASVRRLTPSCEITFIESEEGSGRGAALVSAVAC
It is filed as biochemical. The following applies: read-out: KM for D-glucose, His6-HsHxKIV; truncated construct; 22 °C, pH 7.6.

The target of test [6] is T2, Homo sapiens hexokinase IV (HsHxKIV). The following applies: read-out: KM for D-glucose, non-His-tagged wt-HsHxKIV; cited from earlier work.
In test [7] the target is T1, T. cruzi glucokinase (TcGlcK). The following applies: read-out: KM for D-glucose, TcGlcK; room temperature, pH 8.5; cited from earlier work.
The next test deals with TbHxK. The following applies: read-out: Ki, TbHxK; cited from earlier work.
The mark [8] stands for this setting: ratio of amastigote IC50 values.

Structures are written as SMILES. Like-named read-outs stand apart in the source and are kept apart here.

As a reminder, the IC50 is the point on the concentration scale where inhibition reaches its midpoint. By Km is commonly meant the concentration of substrate that gives half-maximal velocity. What is called Ki is a dissociation constant, usually derived from enzyme kinetics or from competition with a known ligand.

Regarding `O=C(N[C@H]1C(O)O[C@H](CO)[C@@H](O)[C@@H]1O)c1ccccc1` (stereo partly drawn) [BENZ-GlcN, 2-benzamido-2-deoxy-D-glucopyranose], in test [1] (setting [8]), the “fold weaker inhibition effect compared to amphotericin B” value amounted to 34 fold and the “fold weaker inhibition effect compared to benznidazole” value was determined as 14 fold. Also, the “LE (ligand efficiency)” value in test [2] amounted to 0.30 kcal/mol.
On to `O=C(Cn1ccnc1[N+](=O)[O-])NCc1ccccc1` [Benznidazole, N-Benzyl-2-nitro-1H-imidazole-1-acetamide], for which, in the test on T. cruzi parasites, the parasitological cures is listed as at most 80%. For the same compound, the IC50 was 1430 nM in test [3] (ref 50) and 1500 nM in [3] (ref 51).
With `O=C(N[C@H]1C(O)O[C@H](CO)[C@@H](O)[C@@H]1O)OCc1ccccc1` (stereo partly drawn) [CBZ-GlcN, 2-N-carboxybenzyl-2-deoxy-D-glucosamine], in test [2], the TcGlcK selectivity ratio was 245 and the “LE (ligand efficiency)” value is recorded as 0.38 kcal/mol.
For `OC[C@H]1OC(O)[C@H](O)[C@@H](O)[C@@H]1O` (stereo partly drawn) [D-glucose], the Km in test [2] (read-out: KM for D-glucose, His6-TcGlcK, room temperature (22 °C), pH 7.6) is 948 ± 295 µM; in test [4] it was 60 µM; in [5] it was 41800 ± 8700 µM; in test [6] it was 6000 µM; in test [7], 1000 µM.
Regarding `O=C(N[C@H]1C(O)O[C@H](CO)[C@@H](O)[C@@H]1O)OCC1=Cc2ccccc2S1(=O)=O` (stereo partly drawn) [DBT-GlcN, 2-[[1,1-dioxobenzo[b]thiophen-2-yl]methyloxocarbonylamino]-2-deoxy-D-glucosamine], in test [1], the “changes in the percent activity” value is on record as “not significant”. Further, in test [2], the “LE (ligand efficiency)” value worked out at 0.27 kcal/mol and the “fold weaker TcGlcK inhibition compared to CBZ-GlcN” value is on record as 6 fold.
On to `O=C(CCc1ccc(O)cc1)N[C@H]1C(O)O[C@H](CO)[C@@H](O)[C@@H]1O` (stereo partly drawn) [HPOP-GlcN, 2-[[3-(4-hydroxyphenyl)-1-oxopropyl]amino]-2-deoxy-D-glucosamine], for which the “changes in the percent activity” value in test [1] is reported as “not significant”. Moreover, in [2], the TcGlcK selectivity ratio is reported as 186, the “LE (ligand efficiency)” value is 0.35 kcal/mol and the “fold weaker TcGlcK inhibition compared to CBZ-GlcN” value came out at 1.8 fold.
On to `O=C(N[C@H]1C(O)O[C@H](CO)[C@@H](O)[C@@H]1O)c1cccc(Br)c1` (stereo partly drawn) [m-bromo-benzoyl glucosamine], for which the Ki on TbHxK was 2800 nM.

The values are drawn from PMC4794339 (Molecular and biochemical parasitology, 2016).
